The test system of assay [1] is HL-60. The experiment in a line: Antiproliferative activity against human HL60 cells incubated for 48 hrs by MTT assay. The class given is functional, cell-based. The following applies: HL-60, 48 h.
The subject of a further assay is Jurkat. The experiment in a line: Antiproliferative activity against human Jurkat cells incubated for 48 hrs by MTT assay. The assay is classed as functional, cell-based.
In assay [2] the test system is MDA-MB-231. The experiment in a line: Antiproliferative activity against human MDA-MB-231 cells incubated for 48 hrs by MTT assay. As to conditions: MDA-MB-231, 48 h. The class given is functional, cell-based.
Assay [3] deals with LNCaP. The experiment in a line: Antiproliferative activity against human LNCAP cells incubated for 48 hrs by MTT assay. The assay is classed as functional, cell-based.
A further assay concerns Vero. The experiment in a line: Cytotoxicity against African green monkey Vero cells incubated for 48 hrs by MTT assay. The class given is cell-based. The following applies: Chlorocebus sabaeus.
The next assay deals with PBMC. The experiment in a line: Antiproliferative activity against human PBMC incubated for 48 hrs by MTT assay. The class given is cell-based.
Assay [4] deals with HL-60. Kind of assay: Induction of DNA fragmentation in human HL60 cells at 50 uM after 24 hrs using propidium iodide staining by flow cytometric analysis. The assay is classed as functional, cell-based.
For assay [5], the system named is MDA-MB-231. The experiment in a line: Induction of DNA fragmentation in human MDA-MB-231 cells at 50 uM after 24 hrs using propidium iodide staining by flow cytometric analysis. The class given is functional, cell-based.
Assay [6] has as its system LNCaP. The experiment in a line: Selectivity index, ratio of IC50 for African green monkey Vero cells to IC50 for human LNCAP cells. The class given is functional.
The test system of assay [7] is LNCaP. Kind of assay: Selectivity index, ratio of IC50 for human PBMC to IC50 for human LNCAP cells.

Calls of active or inactive are those of the source. The calls are words filed in the database; no cut-off is given here. A value given as a limit tells only on which side of the number the result lay.

As to `CC(C)(C)OC(=O)N1[C@@H](/C=C\c2ccc([N+](=O)[O-])cc2)COC1(C)C`, the IC50 is 18 µM with HL-60 [1]; 42 µM with Jurkat; 32 µM in the assay with MDA-MB-231 [2]; 27 µM in the assay on LNCaP [3]; above 100 µM with Vero; above 100 µM in the assay with PBMC. Also, the result in the assay with HL-60 [4] was Active. For the same molecule, the result in the assay on MDA-MB-231 [5] was inactive.
With `CC(C)(C)OC(=O)N1[C@@H](C(=O)Nc2ccc([N+](=O)[O-])cc2)COC1(C)C`, the IC50 with HL-60 [1] was above 50 µM; in the assay on Jurkat, above 50 µM; with MDA-MB-231 [2], above 80 µM; in the assay with LNCaP [3], above 80 µM.
`COC(=O)c1ccc(CC[C@H]2COC(C)(C)N2C(=O)OC(C)(C)C)cc1`: the IC50 in the assay on HL-60 [1] was 20 µM; in the assay on Jurkat, above 50 µM; in the assay on MDA-MB-231 [2] it was above 80 µM; with LNCaP [3], 37 µM.
For `CC(C)(C)OC(=O)N1[C@@H](CSc2ccc([N+](=O)[O-])cc2)COC1(C)C` the same measures were above 50 µM, above 50 µM, above 80 µM and above 80 µM.
Regarding `CC(C)(C)OC(=O)N1[C@@H](/C=C/c2ccc([N+](=O)[O-])cc2)COC1(C)C`, the IC50 in the assay with HL-60 [1] is 23 µM; in the assay with Jurkat, 46 µM; in the assay with MDA-MB-231 [2], 32 µM; in the assay on LNCaP [3], 11 µM; with Vero it was above 100 µM; with PBMC, above 100 µM. For the same molecule, the “Ratio IC50” value with LNCaP [6] and in the assay with LNCaP [7] was above 9 each time. Further, in the assay with HL-60 [4], the result was Active. Further, the outcome in the assay with MDA-MB-231 [5] was inactive.

The values are drawn from ChEMBL document CHEMBL3627602, “Synthesis of a novel series of 2,3,4-trisubstituted oxazolidines designed by isosteric replacement or rigidification of the structure and cytotoxic evaluation” (Medchemcomm, 2014).
